In patent US4179337A, “Non-immunogenic polypeptides” (priority 1977, dated 1979):
Values belong to the substance of their own block, whether it stands above or below them.

Legend:
[1] = system: rabbit antiserum after immunization with catalase; test: Gel diffusion test for precipitating antibodies; assay type: binding; details: antiserum against native catalase, tested undiluted and 1/10
Experimental: (§1) Immunization - New Zealand, white adult female rabbits were immunized by the intravenous route with a 1.5 mg/ml. stock solution of beef liver catalase for a period of 4 weeks by which time it received a total of 55 mg. of catalase. Rabbits were bled by cardiac puncture 7 and 14 days after completion of the immunization schedule. Approximately 1 month later, rabbits were injected with 5 mg. of the appropriate antigen and bled by cardiac puncture 1 week after receiving the booster injection.
(§2) Rabbit antisera obtained after initial or booster immunization were assayed in vitro for precipitating (1) and complement fixing activities (2,3). Each antiserum (undiluted, 1/10, 1/50) was set up in gel diffusion plates (1.0% Noble Agar in physiological saline with 1.0% azide added as preservative) against both catalase and PEG-HTA-catalase solutions (concentrations ranging from 1000γ/ml. to 5γ/ml). Plates were incubated at room temperature for 48 hours and at 4° C. for 3-4 days. Complement fixing activity of the heat inactivated, sheep red blood cell absorbed antisera was determined using the Microtiter Complement-fixation test (Cooke Engineering Co., Alexandria, Virginia). Antisera were run 1:1 and 1:10 dilutions against catalse and PEG-HTA-catalase dilutions ranging from 1000γ/ml. down to 15γ/ml. Plates were read for presence or absence of hemolysis following incubation at 37° C. for 30 minutes.

[2] = system: rabbit antiserum after immunization with catalase; test: Microtiter complement-fixation test; assay type: binding; details: initial and booster sera
Experimental: as §1, §2

[3] = system: rats made diabetic utilizing alloxan injections; test: PEG insulin rat assay, alloxan diabetic rats; assay type: in vivo; design: % Drop Over Control: concentration or dose not given beside the values
[4] = Insulin activity (animal assay); details: in vivo
insulin antiserum = test: PEG-insulin immunoassay (radioimmunoassay); assay type: binding
Experimental: PEG-HTA-Insulin was prepared in accordance with Example II and tested for antigenic activity by the method of […]

test rabbits = test: PEG-HTA-insulin assay, blood sugar levels in test rabbits (Glucostat method); assay type: in vivo, rabbit; details: after 3 hours, same amount of insulin injected
Experimental: Preliminary insulin and PEG-HTA-insulin containing the same amount of insulin were injected into test rabbits and blood sugar levels measured by the "Glucostat" method (Worthington Biochemical Corporation, Freehold, N. J.).

[5] = intravenous, 8 hrs (animals fed after 5 hrs)

precipitating antibodies, gel diffusion [1]: no evidence of any cross-reactions
complement-fixing activity [2]: negative
Substance: Hydrogen Peroxide: Hydrogen-Peroxide Oxidoreductase (1.11.1.6; "Catalase")-2-PEG-4-Hydroxy-1,3,5-Triazin-6-yl Conjugate [modified catalase]

Substance: Hydrogen-peroxide: hydrogen-peroxide oxidoreductase [Unmodified catalase]
precipitating antibodies, gel diffusion [1]: positive
complement-fixing activity [2]: positive

Substance: Insulin PEG-4-Hydroxy-1,3,5-Triazin-6-yl Conjugate [PEG HTA Insulin (pH 9.2)]
Blood Glucose Level ([3]; intravenous, 0 hrs (initial level)): 305 mg/100 ml.
% Drop Over Control ([3]; intravenous, 2 hrs): 76.2%
Blood Glucose Level ([3]; intravenous, 2 hrs): 72.5 mg/100 ml.
Drop Over Initial Level ([3]; intravenous, 2 hrs): 232 mg/100 ml
% Drop Over Control ([3]; intravenous, 4 hrs): 66.7%
Blood Glucose Level ([3]; intravenous, 4 hrs): 101.5 mg/100 ml.
Drop Over Initial Level ([3]; intravenous, 4 hrs): 203.5 mg/100 ml
% Drop Over Control [3, 5]: 24.6%
Blood Glucose Level [3, 5]: 230 mg/100 ml.
Drop Over Initial Level [3, 5]: 75 mg/100 ml

Substance: insulin [Unmodified Insulin]
Insulin Activity (animal assay) [4]: 137 μ units/ml.
Insulin Antibodies Activity (radioimmunoassay) (insulin antiserum): 127 μ units/ml.
Blood Glucose Level (test rabbits): 20 % of normal
Blood Glucose Level ([3]; intramuscularly, 0 hrs (initial level)): 410 mg/100 ml.
% Drop Over Control ([3]; intramuscularly, 1 hr): 32.9%
Blood Glucose Level ([3]; intramuscularly, 1 hr): 295 mg/100 ml.
Drop Over Initial Level ([3]; intramuscularly, 1 hr): 135 mg/100 ml
% Drop Over Control ([3]; intramuscularly, 2 hrs): 34.1%
Blood Glucose Level ([3]; intramuscularly, 2 hrs): 270 mg/100 ml.
Drop Over Initial Level ([3]; intramuscularly, 2 hrs): 140 mg/100 ml
% Drop Over Control ([3]; intramuscularly, 4 hrs): 29.2%
Blood Glucose Level ([3]; intramuscularly, 4 hrs): 290 mg/100 ml.
Drop Over Initial Level ([3]; intramuscularly, 4 hrs): 120 mg/100 ml
% Drop Over Control ([3]; intramuscularly, 6 hrs): 02.4%
Blood Glucose Level ([3]; intramuscularly, 6 hrs): 400 mg/100 ml.
Drop Over Initial Level ([3]; intramuscularly, 6 hrs): 10 mg/100 ml
